25 molecules from patent publication US10562898B2, “Substituted benzenesulfonamides as inhibitors of alpha-4 beta-7 integrin activity” (EA PHARMA CO., LTD., priority 2016, dated 2020) can be followed below.

In the test the target is T1, α4β7 integrin (Homo sapiens, UniProt P13612+P26010).
T1 construct: a cell line RPMI-8866, which is known to express α4β7 integrin; endogenous in cells; host or cells: RPMI-8866 (human B cell line)
T1 sequence (P13612 34-1032): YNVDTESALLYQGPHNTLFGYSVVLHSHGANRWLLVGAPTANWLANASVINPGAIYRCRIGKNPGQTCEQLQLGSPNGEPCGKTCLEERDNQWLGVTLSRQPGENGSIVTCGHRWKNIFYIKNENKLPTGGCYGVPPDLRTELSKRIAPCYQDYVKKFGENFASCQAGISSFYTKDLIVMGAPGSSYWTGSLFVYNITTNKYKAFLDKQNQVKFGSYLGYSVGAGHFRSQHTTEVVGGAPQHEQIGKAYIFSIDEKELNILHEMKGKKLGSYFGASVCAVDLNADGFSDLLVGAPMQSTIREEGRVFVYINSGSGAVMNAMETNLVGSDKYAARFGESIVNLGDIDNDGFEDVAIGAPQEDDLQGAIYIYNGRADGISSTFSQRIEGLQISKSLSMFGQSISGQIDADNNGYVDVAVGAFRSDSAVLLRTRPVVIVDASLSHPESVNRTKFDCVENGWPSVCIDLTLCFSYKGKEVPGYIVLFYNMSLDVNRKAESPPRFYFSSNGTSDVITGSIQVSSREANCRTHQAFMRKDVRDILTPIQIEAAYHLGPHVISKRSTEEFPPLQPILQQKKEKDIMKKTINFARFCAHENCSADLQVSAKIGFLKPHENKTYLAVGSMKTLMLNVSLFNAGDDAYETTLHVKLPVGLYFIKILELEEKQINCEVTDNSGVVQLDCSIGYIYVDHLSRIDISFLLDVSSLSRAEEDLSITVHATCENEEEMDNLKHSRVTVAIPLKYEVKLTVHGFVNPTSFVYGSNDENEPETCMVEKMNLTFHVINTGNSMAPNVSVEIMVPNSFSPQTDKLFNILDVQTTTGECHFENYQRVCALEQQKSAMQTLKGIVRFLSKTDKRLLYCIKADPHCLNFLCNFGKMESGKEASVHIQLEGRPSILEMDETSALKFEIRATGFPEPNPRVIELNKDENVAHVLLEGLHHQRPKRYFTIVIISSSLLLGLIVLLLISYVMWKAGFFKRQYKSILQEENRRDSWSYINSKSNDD
T1 sequence (P26010 20-798): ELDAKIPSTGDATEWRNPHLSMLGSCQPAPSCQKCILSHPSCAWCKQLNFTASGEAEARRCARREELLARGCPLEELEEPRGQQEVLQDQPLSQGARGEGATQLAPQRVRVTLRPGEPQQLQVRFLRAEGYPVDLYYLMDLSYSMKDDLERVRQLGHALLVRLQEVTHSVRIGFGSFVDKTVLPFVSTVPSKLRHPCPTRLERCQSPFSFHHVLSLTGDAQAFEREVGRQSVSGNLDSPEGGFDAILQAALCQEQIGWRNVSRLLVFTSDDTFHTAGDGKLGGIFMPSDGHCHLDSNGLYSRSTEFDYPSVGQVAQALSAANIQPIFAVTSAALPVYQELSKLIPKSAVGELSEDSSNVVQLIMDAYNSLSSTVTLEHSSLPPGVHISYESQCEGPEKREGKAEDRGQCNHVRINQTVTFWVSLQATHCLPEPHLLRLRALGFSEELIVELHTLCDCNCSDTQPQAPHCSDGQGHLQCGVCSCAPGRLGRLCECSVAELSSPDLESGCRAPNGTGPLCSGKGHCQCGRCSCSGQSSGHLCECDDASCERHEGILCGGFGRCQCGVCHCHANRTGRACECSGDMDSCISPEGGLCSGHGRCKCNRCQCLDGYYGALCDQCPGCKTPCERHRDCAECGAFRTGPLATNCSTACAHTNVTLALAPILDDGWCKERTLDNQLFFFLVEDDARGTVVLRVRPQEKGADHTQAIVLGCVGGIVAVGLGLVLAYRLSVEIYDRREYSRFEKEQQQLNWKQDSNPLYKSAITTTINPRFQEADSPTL
As to the kind of experiment: MAdCAM-1/α4β7 integrin binding inhibitory activity evaluation test in presence of serum. The test is classed as cell-based. The settings on record: RPMI-8866 cells, recombinant mouse MAdCAM-1/Fc, 50% human serum; read-out: α4β7 Serum Added IC50. The method, then:
(3) MAdCAM-1/α4β7 Integrin Binding Inhibitory Activity Evaluation Test in Presence of Serum (1)
Each test substance was measured in terms of an ability to inhibit the MAdCAM-1 binding of a human B cell line, namely, a cell line RPMI-8866, which is known to express α4β7 integrin.
A solution of recombinant mouse MAdCAM-1/Fc (R&D Systems, Inc.) (1 μg/mL) diluted with a buffer A (carbonate buffer, pH 9.6) was added in an amount of 50 μL/well to a 96-well microtiter plate, followed by incubation at 4° C. overnight. After the plate was washed with PBS once, 150 μL/well of Block Ace (Snow Brand Milk Products Co., Ltd.) was added, followed by incubation at room temperature for 2 hours. After removal, the plate was washed with PBS once.
Then, 100 μL of the RPMI-8866 cells (2×10^6 cells/mL) and 100 of the test substance at each of various concentrations diluted with a binding buffer (DMEM containing 40 mM HEPES, 0.2% BSA, and 4 mM MnCl2) were added to the plate coated with the MAdCAM-1/Fc (5×10^5 cells/well) such that 50% human serum was contained at the final concentration. Then, incubation was allowed to proceed at 30° C. for 15 to 60 minutes. After the cells were bound to the wells, the plate was washed with PBS to remove unbound cells. A buffer C (PBS containing 1.5% Triton X-100) was added in an amount 50 μL/well to the plate to lyse the bound RPMI-8866 cells. After 30 μL of a substrate buffer (Promega, CytoTox 96 Non-Radioactive Cytotoxicity Assay) was added to 30 μL of the cell lysate, a reaction was allowed to proceed at room temperature in the dark for 30 minutes. After 30 μL of a stop solution (Promega, CytoTox 96 Non-Radioactive Cytotoxicity Assay) was added to each, and then an absorbance at 490 nm was measured using a plate reader. The absorbance obtained here represents a detection result of an activity of lactate dehydrogenase (LDH) eluted in the supernatant of each well, that is, the absorbance is proportional to the number of RPMI-8866 cells bound to the MAdCAM-1 and thus remaining on the plate. The test was performed in duplicate. Provided that the absorbance of the well containing no test substance was 100%, a cell binding rate with the test substance at each of the various concentrations was figured out, and a concentration IC50 which brought about 50% binding inhibition was calculated.

On to `Cn1ccc(=O)n(-c2ccc(C[C@H](NC(=O)c3cc(F)c(NS(=O)(=O)c4ccc(NC(=O)C(C)(C)C)cc4)cc3F)C(=O)O)cn2)c1=O` [Compound A53], for which the half-inhibitory concentration (IC50) (in general, the concentration needed to halve the response being measured) stood at 11 nM. Regarding `Cc1cn(C)c(=O)n(-c2ccc(C[C@H](NC(=O)c3cc(F)c(NS(=O)(=O)c4ccc(NC(=O)C(C)(C)C)cc4)cc3F)C(=O)O)cn2)c1=O` [Compound A54], the IC50 came out at 8.4 nM. Regarding `Cn1ccc(=O)n(-c2ccc(C[C@H](NC(=O)c3cc(F)c(NS(=O)(=O)c4ccc(NC(=O)C5(C(F)(F)F)CC5)cc4)cc3F)C(=O)O)cn2)c1=O` [Compound A55], the half-maximal inhibitory concentration (IC50) was 33 nM. With `Cc1cn(C)c(=O)n(-c2ccc(C[C@H](NC(=O)c3cc(F)c(NS(=O)(=O)c4ccc(NC(=O)C5(C(F)(F)F)CC5)cc4)cc3F)C(=O)O)cn2)c1=O` [Compound A56], the half-inhibitory concentration (IC50) was 19 nM.

As to `Cn1ccc(=O)n(-c2ccc(C[C@H](NC(=O)c3cc(F)c(NS(=O)(=O)c4ccc(NC(=O)C(C)(C)C(F)(F)F)cc4)cc3F)C(=O)O)cn2)c1=O` [Compound A57], the concentration for half-maximal inhibition (IC50) is 14 nM. To `Cc1cn(C)c(=O)n(-c2ccc(C[C@H](NC(=O)c3cc(F)c(NS(=O)(=O)c4ccc(NC(=O)C(C)(C)C(F)(F)F)cc4)cc3F)C(=O)O)cn2)c1=O` [Compound A58] belongs 12 nM; to `Cn1ccc(=O)n(-c2ccc(C[C@H](NC(=O)c3cc(F)c(NS(=O)(=O)c4ccc(NC(=O)C5(C#N)CC5)cc4)cc3F)C(=O)O)cn2)c1=O` [Compound A59], 93 nM; to `Cc1cn(C)c(=O)n(-c2ccc(C[C@H](NC(=O)c3cc(F)c(NS(=O)(=O)c4ccc(NC(=O)C5(C#N)CC5)cc4)cc3F)C(=O)O)cn2)c1=O` [Compound A60], 52 nM.

Take `CCC(CC)C(=O)Nc1ccc(S(=O)(=O)Nc2cc(F)c(C(=O)N[C@@H](Cc3ccc(-n4c(=O)ccn(C)c4=O)nc3)C(=O)O)cc2F)cc1` [Compound A61]: the IC50 was 62 nM. In the case of `Cn1ccc(=O)n(-c2ccc(C[C@H](NC(=O)c3cc(F)c(NS(=O)(=O)c4ccc(NC(=O)C(C)(C)CO)cc4)cc3F)C(=O)O)cn2)c1=O` [Compound A62] it was 22 nM.

Turning to `Cc1cn(C)c(=O)n(-c2ccc(C[C@H](NC(=O)c3cc(F)c(NS(=O)(=O)c4ccc(NC(=O)C(C)(C)CO)cc4)cc3F)C(=O)O)cn2)c1=O` [Compound A63], the IC50 turned out to be 12 nM.

Consider `Cn1ccc(=O)n(-c2ccc(C[C@H](NC(=O)c3cc(F)c(NS(=O)(=O)c4ccc(NC(=O)C5CCCC5)cc4)cc3F)C(=O)O)cn2)c1=O` [Compound A64], for which the IC50 was found to be 89 nM. In the case of `Cc1cn(C)c(=O)n(-c2ccc(C[C@H](NC(=O)c3cc(F)c(NS(=O)(=O)c4ccc(NC(=O)C5CCCC5)cc4)cc3F)C(=O)O)cn2)c1=O` [Compound A65] it was 50 nM.

For the molecule `Cn1c(C(F)(F)F)cc(=O)n(-c2ccc(C[C@H](NC(=O)c3cc(F)c(NS(=O)(=O)c4ccc(NC(=O)C(C)(C)C)cc4)cc3F)C(=O)O)cn2)c1=O` [Compound A66], the IC50 was determined as 25 nM. Take `Cn1cc(C(F)(F)F)c(=O)n(-c2ccc(C[C@H](NC(=O)c3cc(F)c(NS(=O)(=O)c4ccc(NC(=O)C(C)(C)C)cc4)cc3F)C(=O)O)cn2)c1=O` [Compound A67]: the IC50 amounted to 14 nM. In the case of `Cc1cn(C)c(=O)n(-c2ccc(C[C@H](NC(=O)c3cc(F)c(NS(=O)(=O)c4ccc(NC(=O)C#CC(C)(C)C)cc4)cc3F)C(=O)O)cn2)c1=O` [Compound A68], the IC50 was 33 nM. To `Cc1cn(C)c(=O)n(-c2ccc(C[C@H](NC(=O)c3cc(F)c(NS(=O)(=O)c4ccc(NC(=O)C(C)(C)C)cc4)cc3F)C(=O)O)nc2)c1=O` [Compound A69] belongs 16 nM.

Consider `Cn1ccc(=O)n(-c2ccc(C[C@H](NC(=O)c3cc(F)c(NS(=O)(=O)c4ccc(NC(=O)C(C)(C)C)cc4)cc3F)C(=O)O)nc2)c1=O` [Compound A70], for which the IC50 was 33 nM. For `Cc1cn(C)c(=O)n(-c2ccc(C[C@H](NC(=O)c3cc(F)c(NS(=O)(=O)c4ccc(NC(=O)C(C)C)cc4)cc3F)C(=O)O)cn2)c1=O` [Compound A71], the IC50 is 43 nM. For the molecule `Cc1cc(=O)n(-c2ccc(C[C@H](NC(=O)c3cc(F)c(NS(=O)(=O)c4ccc(NC(=O)C(C)(C)C)cc4)cc3F)C(=O)O)nc2)c(=O)n1C` [Compound A72], the 50% inhibitory concentration (IC50) was 28 nM.

With `Cc1cn(C)c(=O)n(-c2ccc(C[C@H](NC(=O)c3cc(F)c(NS(=O)(=O)c4ccc(NC(=O)C(C)(C)C)s4)cc3F)C(=O)O)cn2)c1=O` [Compound A73], the IC50 came out at 37 nM.

Take `Cc1cn(C)c(=O)n(-c2ccc(C[C@H](NC(=O)c3cc(F)c(NS(=O)(=O)c4ccc5c(NC(=O)C(C)(C)C)c[nH]c5c4)cc3F)C(=O)O)cn2)c1=O` [Compound A74]: the IC50 was 50 nM. To `CN1CCC(=O)N(c2ccc(C[C@H](NC(=O)c3cc(F)c(NS(=O)(=O)c4ccc(NC(=O)C(C)(C)C)cc4)cc3F)C(=O)O)cn2)C1=O` [Compound A75, (2S)-2-[2,5-difluoro-4-[(4-pivalamidophenyl)sulfonamide]benzamido]-3-[6-(3-methyl-2,6-dioxotetrahydropyrimidin-1(2H)-yl)pyridin-3-yl]propanoic acid] belongs 16 nM; to `Cc1cn(C)c(=O)n(-c2ccc(C[C@H](NC(=O)c3cc(F)c(NS(=O)(=O)c4cc5cc(NC(=O)C(C)(C)C)ccc5[nH]4)cc3F)C(=O)O)cn2)c1=O` [Compound A76], 14 nM; to `Cc1cn(C)c(=O)n(-c2ccc(C[C@H](NC(=O)c3cc(F)c(NS(=O)(=O)c4c[nH]c5cc(NC(=O)C(C)(C)C)ccc45)cc3F)C(=O)O)cn2)c1=O` [Compound A77], 25 nM.
